From patent EP0535528A1, “Antibacterial 5-Nitro-1-methyl-imidazolyl-3-terbutyl-2-hydroxy-aryl-carbinols” (EURORESEARCH S.r.L., priority 1991, dated 1993)
Converted amounts (≈) assume the structure as drawn. Like-named read-outs stand apart in the source and are kept apart here.

Key:
[1] = test system: Swiss female albino mice; test: Oral and intraperitoneal acute toxicity in mice (LD50, Probits method); type: in vivo; conditions: for Mortality per day: 5 animals; for mortality: intraperitoneal
Method: (§1) 20 Swiss female albino mice are used for this test of the average weight of 20 g (±2), coming from Nossan breeding .
(§2) Cages: in Makrolon® with saw dust litter, Number of animals per cage: 5 Acclimation period: 1 week Temperature: 22°C (± 2°C) Humidity : 60%, Diet: pellets for mice produced by Nossan firm, Water ad libitum Fast before the treatment: 16 hours
(§3) Oral by gastric route and intraperitoneal.
(§4) The substances to be studied: EU11100, EU11102, EU11103, EU11104 are treated with 0.5% carboxymethylcellulose in spring water, for the oral administration, whereas the same substances are intraperitoneally administered in the form of a physiological solution .
(§5) For each of the above mentioned substances, a mother suspension is prepared having a concentration in the active ingredient of 250 mg/ml for the oral administration, and analogously a mother suspension is prepared for the intraperitoneal administration having a concentration of the desired active principle of 100 mg/ml.
(§6) The following doses are used • a) oral route: 5000 mg/kg • b) intraperitoneal route : 2000 mg/kg
(§7) If mortality is observed at the above mentioned doses, other doses are administered in order to obtain a dose-response curve.
(§8) 5 animals are used for every utilized concentration.
(§9) After the administration of the above substances the animals are kept under observation for 14 days , during which the mortality and the behaviour is observed.
(§10) LD₅₀ is determined on the base of the cumulative mortality observed in the successive 14 days after the administration by using the Probits method.

[2] = as above; type: in vivo; conditions: mouse, in vivo, Swiss female mice, 14 days observation
Method: as §1, §2, §3, §4, §5, §6, §7, §8, §9, §10

[3] = solubility of the isolated product; type: physicochemical
[4] = test system: Helicobapter pylori; test: Inhibition halos of the bacterial growth (impregnated disks on agar); type: cell-based
Method: Comparison substance: Metronidazole Solubilization of the substances : All the substances to be studied are dissolved at room temperature in DMSO.
Some commercially available antibiogram disks are so impregnated with the above mentioned compounds that each disk has concentration equal to 10, 1, 0.1, 0.01 µg.
10 strains of Helicobapter pylori are used of recent clinical isolation.
Columbia Blood Agar Base is used, containing 5% of defibrinated horse blood, 2 % of calf serum, 2 vials of Vitox per liter of medium and Vancomicine (10 µg/ml) Trimetoprim lactate(5 µg/ml) and Polimixin B (2.5 U/ml).
0.1 ml of a suspension of the different used strains are uniformly distributed onto Petri plates, containing 20 ml of Columbia Blood Agar base, obtained by taking a sample, by means of a platinum loop, of different colonies from a 48 hours culture, grown in anaerobiosis jars with "Gas Pack", without a catalyst and diluted into a physiological solution.
4 disks per plate, previously impregnated with the substances under examination, are then placed onto the agar layer of each plate.
After 48 hours of anaerobiosis incubation, as above described, the inhibition halos of the bacterial growth, produced by the different activity of the substances inside the agar, are evaluated.

[5] = test system: Helicobapter pylori; test: Minimal inhibiting concentration (agar dilution); type: cell-based
Method: Substances under examination: EU11100, EU11102, EU11103, EU11104. Comparison substance: Metronidazole Solubilization of the substances: All the substances to be studied are dissolved at room temperature in DMSO. […] 10 strains of Helicobapter pylori are used of recent clinical isolation […] The sowing of the bacteria, prepared as described in the preceding test is carried out by means a "multi-point inoculator". After 48 hours incubation under the condition described in the preceding test, the plates are examined and the Minimal Inhibiting Concentration is evaluated, namely that dose corresponding to growth absence.

[6] = test system: Salmonella typhimurium; test: Ames test, mutagenic activity; type: cell-based

Compound: COc1cc(C(O)c2ncc([N+](=O)[O-])n2C)c(O)c(C(C)(C)C)c1 (stereo not drawn) [EU11100, 5-nitro-1-methyl-imidazolyl-3-terbutyl-2-hydroxy-5-methoxy-phenyl-carbinol]
- LD50 i.p. ([1]; Swiss female mice, ip, 14 days observation, 20160 min): LD50 i.p.= 890 mg/Kg (confidence limits: 781 - 1014)
- Observation on the behaviour ([1]; ip, 500 mg/Kg): 500 mg/Kg: no alteration
- Mortality per day ([1]; ip, 500 mg/Kg, day 1): 0
- Observation on the behaviour ([1]; ip, 750 mg/Kg): 750 mg/Kg: motor activity reduction
- Mortality per day ([1]; ip, 750 mg/Kg, day 1): 1
- Mortality per day ([1]; ip, 1000 mg/Kg, day 1): 3
- Mortality per day ([1]; ip, 1500 mg/Kg, day 1): 5
- Mortality per day ([1]; ip, 2000 mg/Kg, day 1): 5
- Death within (time) ([1]; ip, doses 2000 - 1500 - 1000 mg/Kg): 6 to 24 h
- Observation on the behaviour ([1]; ip, doses 2000 - 1500 - 1000 mg/Kg, after 15-30'): considerable behaviouristic alteration, such as the loss of body-righting reflex
- Observation on the behaviour ([1]; ip, doses 2000 - 1500 - 1000 mg/Kg, after 15-30', listed as EU 11100): considerable reduction motor activity and subsequent loss of body righting reflex
- mortality ([1]; mice, 1500 mg/kg): 100%
- mortality ([1]; mice, 2000 mg/kg): 100%
- toxicity when intraperitoneally administered ([1]; mice, intraperitoneal, 2000, 1500 and 1000 mg/kg): toxic
- toxicity when orally administered ([1]; mice, oral, 5000 mg/kg): not toxic
- Observation on the behaviour ([1]; os, 5000 mg/Kg): No alteration
- Mortality per day ([1]; os, 5000 mg/Kg, day 1): 0
- Mortality per day ([1]; os, 5000 mg/Kg, day 2): 0
- Mortality per day ([1]; os, 5000 mg/Kg, day 3): 0
- Mortality per day ([1]; os, 5000 mg/Kg, day 4): 0
- Mortality per day ([1]; os, 5000 mg/Kg, day 5): 0
- Mortality per day ([1]; os, 5000 mg/Kg, day 6): 0
- Mortality per day ([1]; os, 5000 mg/Kg, day 7): 0
- Mortality per day ([1]; os, 5000 mg/Kg, day 8): 0
- Mortality per day ([1]; os, 5000 mg/Kg, day 9): 0
- Mortality per day ([1]; os, 5000 mg/Kg, day 10): 0
- Mortality per day ([1]; os, 5000 mg/Kg, day 11): 0
- Mortality per day ([1]; os, 5000 mg/Kg, day 12): 0
- Mortality per day ([1]; os, 5000 mg/Kg, day 13): 0
- Mortality per day ([1]; os, 5000 mg/Kg, day 14): 0
- LD50 at 336 h ([2]; po, per os, read-out: LD50 os): > 5000 mg/kg
- LD50 at 336 h ([2]; ip, read-out: LD50 i.p.): 890 mg/kg
- solubility [3]: Soluble in CH₃OH, benzene, acetone, ethyl ether; insoluble in water and ligroin.
- activity against the Helicobapter pylori strains used ([4]; 10 strains, 0.1 µg/disk): still able to produce halos against all the strains used
- Inhibition halo (mm), Average ([4]; average of 10 strains, 10 µg/disk): 43.7 mm
- Inhibition halo (mm) at the concentration (µg/disk) ([4]; strain 1, 0.01 µg/disk): 0 mm
- Inhibition halo (mm) at the concentration (µg/disk) ([4]; strain 1, 0.1 µg/disk): 26 mm
- Inhibition halo (mm) at the concentration (µg/disk) ([4]; strain 1, 1 µg/disk): 35 mm
- Inhibition halo (mm) at the concentration (µg/disk) ([4]; strain 1, 10 µg/disk): 50 mm
- Inhibition halo (mm) at the concentration (µg/disk) ([4]; strain 2, 0.01 µg/disk): 0 mm
- Inhibition halo (mm) at the concentration (µg/disk) ([4]; strain 2, 1 µg/disk): 30 mm
- Inhibition halo (mm) at the concentration (µg/disk) ([4]; strain 2, 10 µg/disk): 44 mm
- Inhibition halo (mm) at the concentration (µg/disk) ([4]; strain 3, 0.01 µg/disk): 0 mm
- Inhibition halo (mm) at the concentration (µg/disk) ([4]; strain 3, 0.1 µg/disk): 14 mm
- Inhibition halo (mm) at the concentration (µg/disk) ([4]; strain 3, 1 µg/disk): 30 mm
- Inhibition halo (mm) at the concentration (µg/disk) ([4]; strain 3, 10 µg/disk): 38 mm
- Inhibition halo (mm) at the concentration (µg/disk) ([4]; strain 4, 0.01 µg/disk): 0 mm
- Inhibition halo (mm) at the concentration (µg/disk) ([4]; strain 4, 0.1 µg/disk): 26 mm
- Inhibition halo (mm) at the concentration (µg/disk) ([4]; strain 4, 1 µg/disk): 35 mm
- Inhibition halo (mm) at the concentration (µg/disk) ([4]; strain 4, 10 µg/disk): 50 mm
- Inhibition halo (mm) at the concentration (µg/disk) ([4]; strain 5, 0.01 µg/disk): 0 mm
- Inhibition halo (mm) at the concentration (µg/disk) ([4]; strain 5, 0.1 µg/disk): 12 mm
- Inhibition halo (mm) at the concentration (µg/disk) ([4]; strain 5, 1 µg/disk): 22 mm
- Inhibition halo (mm) at the concentration (µg/disk) ([4]; strain 5, 10 µg/disk): 38 mm
- Inhibition halo (mm) at the concentration (µg/disk) ([4]; strain 6, 0.01 µg/disk): 0 mm
- Inhibition halo (mm) at the concentration (µg/disk) ([4]; strain 6, 0.1 µg/disk): 22 mm
- Inhibition halo (mm) at the concentration (µg/disk) ([4]; strain 6, 1 µg/disk): 34 mm
- Inhibition halo (mm) at the concentration (µg/disk) ([4]; strain 6, 10 µg/disk): 48 mm
- Inhibition halo (mm) at the concentration (µg/disk) ([4]; strain 7, 0.01 µg/disk): 0 mm
- Inhibition halo (mm) at the concentration (µg/disk) ([4]; strain 7, 0.1 µg/disk): 12 mm
- Inhibition halo (mm) at the concentration (µg/disk) ([4]; strain 7, 1 µg/disk): 28 mm
- Inhibition halo (mm) at the concentration (µg/disk) ([4]; strain 7, 10 µg/disk): 35 mm
- Inhibition halo (mm) at the concentration (µg/disk) ([4]; strain 8, 0.01 µg/disk): 0 mm
- Inhibition halo (mm) at the concentration (µg/disk) ([4]; strain 8, 0.1 µg/disk): 21 mm
- Inhibition halo (mm) at the concentration (µg/disk) ([4]; strain 8, 10 µg/disk): 48 mm
- Inhibition halo (mm) at the concentration (µg/disk) ([4]; strain 9, 0.01 µg/disk): 0 mm
- Inhibition halo (mm) at the concentration (µg/disk) ([4]; strain 9, 1 µg/disk): 28 mm
- Inhibition halo (mm) at the concentration (µg/disk) ([4]; strain 9, 10 µg/disk): 43 mm
- Inhibition halo (mm) at the concentration (µg/disk) ([4]; strain 10, 0.01 µg/disk): 0 mm
- Inhibition halo (mm) at the concentration (µg/disk) ([4]; strain 10, 0.1 µg/disk): 14 mm
- Inhibition halo (mm) at the concentration (µg/disk) ([4]; strain 10, 10 µg/disk): 43 mm
- MIC50 ([5]; 10 strains): 0.03 µg/mL (≈ 0.0895 µM)
- MIC90 ([5]; 10 strains): 0.06 µg/mL (≈ 0.179 µM)
- MIC range ([5]; 10 strains): 0.015 to 0.016 µg/mL
- MIC values ([5]; in words, compared with Metronidazole): very low MIC values
- MIC ([5]; strain 1): 0.12 µg/mL (≈ 0.358 µM)
- MIC ([5]; strain 2): 0.03 µg/mL (≈ 0.0895 µM)
- MIC ([5]; strain 3): 0.03 µg/mL (≈ 0.0895 µM)
- MIC ([5]; strain 4): 0.03 µg/mL (≈ 0.0895 µM)
- MIC ([5]; strain 5): 0.015 µg/mL (≈ 0.0447 µM)
- MIC ([5]; strain 6): 0.03 µg/mL (≈ 0.0895 µM)
- MIC ([5]; strain 7): 0.06 µg/mL (≈ 0.179 µM)
- MIC ([5]; strain 8): 0.03 µg/mL (≈ 0.0895 µM)
- MIC ([5]; strain 9): 0.03 µg/mL (≈ 0.0895 µM)
- MIC ([5]; strain 10): 0.03 µg/mL (≈ 0.0895 µM)
- toxicity to the Salmonella strains ([6]; 1000 µg/capsule, in the absence of metabolic activation): toxic
- mutagenic activity ([6]; general statement): practically no mutagenic activity
- doubling of the base value ([6]; strain TA-100, without metabolic activation, 500 µg/capsule): 1.95 times
- signal in other strains ([6]; strains other than TA-100, without metabolic activation): do not give rise to any particular signal
- spontaneous reversion of Salmonella ([6]; with metabolic activation, 250, 500 and 1000 µg/capsule): does not increase the spontaneous reversion of Salmonella
